Like-named read-outs stand apart in the source and are kept apart here.
What was measured:
[1] = in vitro; conditions: dog
[2] = Cytotoxicity in MOLT-3 cells; format: cell-based; conditions: human, cell line MOLT-3 (HHV-6B row)
Procedure: Cell viability in all assays with lymphocytes was assessed with the CellTiter-Glo Luminescent Cell Viability Assay (Promega). Briefly, assay plates were incubated at ambient temperature for 30 min then 50 µl of CellTiter-Glo reagent was added to each well and the plates were mixed for 2 min on an orbital shaker to lyse the cells. Plates were then incubated for an additional 10 min at ambient temperature and the luminescence was quantified on a luminometer. Standard methods were used to calculate drug concentrations that inhibited the proliferation of Akata, HSB-2, BCLB-1, or Molt-3 cells by 50% (CC50).

[3] = tested on: Ebola; experiment: microbe, parasite or virus in culture; format: cell-based, ebola virus; conditions: Zaire ebolavirus
[4] = tested on: Cowpox Virus (Strain Brighton); experiment: microbe, parasite or virus in culture; format: cell-based; conditions: Fibroblast, read-out: CPXV EC50, μM
[5] = tested on: Herpes Simplex Virus 1 (Strain E-377); experiment: Plaque reduction assay, HSV-1 in human foreskin fibroblast cells; format: cell-based; conditions: Human alphaherpesvirus 1; Strain E-377, human foreskin fibroblast cells
[6] = tested on: HHV-8; experiment: HHV-8 antiviral activity in BCBL-1 cells; format: cell-based, human herpes virus 8 (HHV-8); conditions: Homo sapiens, BCBL1; Virus HHV-8, cell line BCBL-1
[7] = in vitro; conditions: African green monkey
[8] = Cytotoxicity (CC50) in MT4 cells; format: cell-based; conditions: human
Procedure: Costar 96-well tissue culture plates were seeded with 5,000 MT4 cells (NIH AIDS Reagents Program)/well in RPMI (Lonza, Cat 12-11F) containing 10% Hyclone Standard Fetal Bovine Serum (FBS, Cat 5H30088.03), 1% Hyclone Penicillin and Streptomycin (Cat SV30010), and 2 mM Lonza L-Glutamine (Cat 17-605E). Outer wells were not used to minimize the edge-effect produced by extended incubations. Serial dilutions of test compounds were added to the cells and plates were incubated for 6 days at 37° C. in 5% CO2. After 6 days of incubation 40 μL of Cell Titer 96® Aqueous MTS Reagent (Promega, G111) was added as directed by manufacturer to the 200 μL media in each well and incubated at 37° C. until the untreated-cell controls developed an 490 nm absorbance between 1.1 and 1.8. The final absorbance readings were read using a BioTek Synergy 2, and Gen 5 software (BioTek Instruments, Inc.) was used to calculate the concentration which inhibited MT4 cells by 50% (CC50).

[9] = tested on: HBV; experiment: HBV antiviral activity in 2.2.15 cells; format: cell-based; conditions: Hepatitis B virus, cell line 2.2.15
[10] = tested on: MCMV; experiment: MCMV antiviral activity in MEF cells; format: cell-based; conditions: Virus MCMV, cell line MEF
[11] = tested on: Influenza virus A/CA/10/2009; experiment: microbe, parasite or virus in culture; format: cell-based; conditions: unidentified influenza virus, MDCK, read-out: A/CA/10/2009 (EC50, μM)
[12] = in vitro; conditions: human
[13] = tested on: Epstein-Barr virus; experiment: DNA Hybridization Assay for EBV in Akata cells; format: cell-based; conditions: human gammaherpesvirus 4, read-out: Efficacy DNA Hybridization Assay (EC50)
Procedure: Akata cells latently infected with EBV were obtained from John Sixbey. The GS strain of HHV-6A was obtained through the NIH AIDS Research and Reference Reagent Program.
Each experiment that evaluated the antiviral activity of the compounds included both positive and negative control compounds to ensure the performance of each assay. Concurrent assessment of cytotoxicity was also performed for each study at equivalent levels of compound exposure. When sufficient material was available, multiple assays were performed for each compound evaluation to obtain statistical data.
Assays for EBV were performed in Akata cells that were induced to undergo a lytic infection with 50 μg/ml of a goat anti-human IgG antibody by standard methods. Experimental compounds were diluted in round bottom 96-well plates to yield concentrations ranging from 20 to 0.016 μM. Akata cells were added to the plates at a concentration of 4×10^4 cells per well and incubated for 72 h. For HHV-6 assays, compounds were serially diluted in 96-well plates then 1×10^4 uninfected HSB-2 or Molt-3 cells were added to each well. Infection was initiated by adding HHV-6A infected HSB-2 cells, or HHV-6B infected Molt-3 cells, at a ratio of approximately 1 infected cell for every 10 uninfected HSB-2 cells or Molt-3 cells respectively and incubated for 7 d at 37° C. […]

[14] = Cytotoxicity in 2.2.15 cells; format: cell-based; conditions: human, cell line 2.2.15 (HBV row)
[15] = tested on: HCMV UL54 resistant mutant GDG^RP53; experiment: microbe, parasite or virus in culture; format: cell-based, Human Cytomegalovirus (HCMV); conditions: Human betaherpesvirus 5, Fibroblast

`CC(C)CCCCCCCCCCCCCCOCCCOP(=O)(O)COC(CO)Cn1ccc(=O)[nH]c1=O` (stereo not shown) [Compound 12] gave a CC50 [1] of 17.2 µM, a CC50 [2] of 8.4 µM and an EC50 [3] of 1 µM. For the same compound, the EC50 [4] was > 10 µM, the EC50 [5] was > 50 µM and the EC50 [6] was < 0.08 µM. It also gave a CC50 [7] of 29 µM, a CC50 at 6 days ([8]; MT4 cells (Table 7), read-out: MT4 CC50) of 25.6 µM and a CC50 at 6 days ([8]; Mean XC50 (Table 9), read-out: MT4 cytotoxicity CC50) of 24.7 µM. For the same compound, the EC50 [9] was 3 µM, the EC50 [10] was 1.6 µM and the EC50 [11] was > 4 µM. For the same compound, the CC50 ([12]; CPXV CC50, μM, Human Foreskin Fibroblast Cells, parallel to CPXV assay) was > 10 µM, the CC50 ([12]; HCMV CC50, μM) was > 50 µM and the CC50 ([12]; HSV-1 CC50, μM) was > 50 µM. For the same compound, the EC50 [13] was > 10 µM, the CC50 [14] was 34 µM and the EC50 ([15]; read-out: EC50 μM, Virus GDG^RP53, human foreskin fibroblast cells) was ~0.171 µM. The EC90 ([15]; read-out: EC90 μM) was 1.55 µM.

Source: patent US20170029451A1, “BRANCHED CHAIN ACYCLIC NUCLEOSIDE PHOSPHONATE ESTERS AND METHODS OF SYNTHESIS AND USES THEREOF” (CHIMERIX, INC., priority 2013, published 2017)
